Measured values taken from PubChem BioAssay (NCI).
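96-well plates; 48 h exposure; 5 concentrations. Endpoints by linear interpolation between flanking doses. Not reached: highest tested concentration assigned. TGI: total growth inhibition.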

Tests used:
Assay in all cases: DTP human tumour cell line panel, 48 h
786-0 renal = system: 786-0 renal
A549 NSCLC = system: A549 NSCLC
ACHN renal = system: ACHN renal
BT-549 breast = system: BT-549 breast
CAKI-1 renal = system: CAKI-1 renal
CCRF-CEM leukemia = system: CCRF-CEM leukemia
COLO 205 colon = system: COLO 205 colon
DU-145 prostate = system: DU-145 prostate
EKVX NSCLC = system: EKVX NSCLC
HCC-2998 colon = system: HCC-2998 colon
HCT-116 colon = system: HCT-116 colon
HCT-15 colon = system: HCT-15 colon
HL-60(TB) leukemia = system: HL-60(TB) leukemia
HOP-62 NSCLC = system: HOP-62 NSCLC
HOP-92 NSCLC = system: HOP-92 NSCLC
HT29 colon = system: HT29 colon
IGROV1 ovarian = system: IGROV1 ovarian
K-562 leukemia = system: K-562 leukemia
KM12 colon = system: KM12 colon
M14 melanoma = system: M14 melanoma
MCF7 breast = system: MCF7 breast
MDA-N = system: MDA-N
MOLT-4 leukemia = system: MOLT-4 leukemia
NCI-H226 lung = system: NCI-H226 lung
NCI-H23 lung = system: NCI-H23 lung
NCI-H460 lung = system: NCI-H460 lung
NCI-H522 lung = system: NCI-H522 lung
NCI/ADR-RES ovarian = system: NCI/ADR-RES ovarian
OVCAR-3 ovarian = system: OVCAR-3 ovarian
OVCAR-4 ovarian = system: OVCAR-4 ovarian
OVCAR-5 ovarian = system: OVCAR-5 ovarian
OVCAR-8 ovarian = system: OVCAR-8 ovarian
PC-3 prostate = system: PC-3 prostate
RPMI-8226 leukemia = system: RPMI-8226 leukemia
RXF 393 renal = system: RXF 393 renal
SF-268 CNS = system: SF-268 CNS
SF-295 CNS = system: SF-295 CNS
SF-539 CNS = system: SF-539 CNS
SK-MEL-28 melanoma = system: SK-MEL-28 melanoma
SK-MEL-5 melanoma = system: SK-MEL-5 melanoma
SK-OV-3 ovarian = system: SK-OV-3 ovarian
SN12C renal = system: SN12C renal
SNB-19 CNS = system: SNB-19 CNS
SNB-75 CNS = system: SNB-75 CNS
SR leukemia = system: SR leukemia
SW-620 colon = system: SW-620 colon
TK-10 renal = system: TK-10 renal
U251 CNS = system: U251 CNS
UACC-257 melanoma = system: UACC-257 melanoma
UACC-62 melanoma = system: UACC-62 melanoma
UO-31 renal = system: UO-31 renal
A498 renal = system: A498 renal
LOX IMVI melanoma = system: LOX IMVI melanoma
MALME-3M melanoma = system: MALME-3M melanoma
MDA-MB-231 breast = system: MDA-MB-231 breast
MDA-MB-435 = system: MDA-MB-435
SK-MEL-2 melanoma = system: SK-MEL-2 melanoma
T-47D breast = system: T-47D breast

CC(CC(C)(C)[N+](C)(C)C)[N+](C)(C)C (centres undefined)
TGI (786-0 renal): > 100 µM
TGI (A549 NSCLC): > 100 µM
TGI (ACHN renal): > 100 µM
TGI (BT-549 breast): > 100 µM
TGI (CAKI-1 renal): > 100 µM
TGI (CCRF-CEM leukemia): > 100 µM
TGI (COLO 205 colon): > 100 µM
TGI (DU-145 prostate): > 100 µM
TGI (EKVX NSCLC): > 100 µM
TGI (HCC-2998 colon): > 100 µM
TGI (HCT-116 colon): > 100 µM
TGI (HCT-15 colon): > 100 µM
TGI (HL-60(TB) leukemia): > 100 µM
TGI (HOP-62 NSCLC): > 100 µM
TGI (HOP-92 NSCLC): > 100 µM
TGI (HT29 colon): > 100 µM
TGI (IGROV1 ovarian): > 100 µM
TGI (K-562 leukemia): > 100 µM
TGI (KM12 colon): > 100 µM
TGI (M14 melanoma): > 100 µM
TGI (MCF7 breast): > 100 µM
TGI (MDA-N): > 100 µM
TGI (MOLT-4 leukemia): > 100 µM
TGI (NCI-H226 lung): > 100 µM
TGI (NCI-H23 lung): > 100 µM
TGI (NCI-H460 lung): > 100 µM
TGI (NCI-H522 lung): > 100 µM
TGI (NCI/ADR-RES ovarian): > 100 µM
TGI (OVCAR-3 ovarian): > 100 µM
TGI (OVCAR-4 ovarian): > 100 µM
TGI (OVCAR-5 ovarian): > 100 µM
TGI (OVCAR-8 ovarian): > 100 µM
TGI (PC-3 prostate): > 100 µM
TGI (RPMI-8226 leukemia): > 100 µM
TGI (RXF 393 renal): > 100 µM
TGI (SF-268 CNS): > 100 µM
TGI (SF-295 CNS): > 100 µM
TGI (SF-539 CNS): > 100 µM
TGI (SK-MEL-28 melanoma): > 100 µM
TGI (SK-MEL-5 melanoma): > 100 µM
TGI (SK-OV-3 ovarian): > 100 µM
TGI (SN12C renal): > 100 µM
TGI (SNB-19 CNS): > 100 µM
TGI (SNB-75 CNS): > 100 µM
TGI (SR leukemia): > 100 µM
TGI (SW-620 colon): > 100 µM
TGI (TK-10 renal): > 100 µM
TGI (U251 CNS): > 100 µM
TGI (UACC-257 melanoma): > 100 µM
TGI (UACC-62 melanoma): > 100 µM
TGI (UO-31 renal): > 100 µM

O=C(NNCc1ccccc1O)c1ccccc1O
TGI (786-0 renal): > 100 µM
TGI (A498 renal): > 100 µM
TGI (A549 NSCLC): > 100 µM
TGI (ACHN renal): > 100 µM
TGI (CAKI-1 renal): > 100 µM
TGI (COLO 205 colon): > 100 µM
TGI (DU-145 prostate): 43.4 µM
TGI (EKVX NSCLC): > 100 µM
TGI (HCC-2998 colon): 45.1 µM
TGI (HCT-116 colon): > 100 µM
TGI (HCT-15 colon): > 100 µM
TGI (HL-60(TB) leukemia): 4.17 µM
TGI (HOP-62 NSCLC): > 100 µM
TGI (HOP-92 NSCLC): > 100 µM
TGI (HT29 colon): > 100 µM
TGI (IGROV1 ovarian): > 100 µM
TGI (K-562 leukemia): > 100 µM
TGI (KM12 colon): > 100 µM
TGI (LOX IMVI melanoma): > 100 µM
TGI (M14 melanoma): 24.2 µM
TGI (MALME-3M melanoma): > 100 µM
TGI (MCF7 breast): 80.3 µM
TGI (MDA-MB-231 breast): > 100 µM
TGI (MDA-MB-435): > 100 µM
TGI (MDA-N): > 100 µM
TGI (MOLT-4 leukemia): > 100 µM
TGI (NCI-H226 lung): > 100 µM
TGI (NCI-H23 lung): > 100 µM
TGI (NCI-H522 lung): > 100 µM
TGI (NCI/ADR-RES ovarian): 40.4 µM
TGI (OVCAR-3 ovarian): 6.29 µM
TGI (OVCAR-4 ovarian): > 100 µM
TGI (OVCAR-5 ovarian): 96.3 µM
TGI (OVCAR-8 ovarian): > 100 µM
TGI (PC-3 prostate): > 100 µM
TGI (RPMI-8226 leukemia): > 100 µM
TGI (RXF 393 renal): > 100 µM
TGI (SF-295 CNS): 17.4 µM
TGI (SF-539 CNS): > 100 µM
TGI (SK-MEL-2 melanoma): 25.8 µM
TGI (SK-MEL-28 melanoma): > 100 µM
TGI (SK-MEL-5 melanoma): 25.8 µM
TGI (SK-OV-3 ovarian): 68.6 µM
TGI (SN12C renal): > 100 µM
TGI (SNB-19 CNS): > 100 µM
TGI (SNB-75 CNS): > 100 µM
TGI (SW-620 colon): > 100 µM
TGI (T-47D breast): 35 µM
TGI (TK-10 renal): > 100 µM
TGI (U251 CNS): > 100 µM
TGI (UACC-257 melanoma): > 100 µM
TGI (UACC-62 melanoma): 55.9 µM
TGI (UO-31 renal): 16.5 µM
